From PubChem BioAssay AID608 (Sanford-Burnham Center for Chemical Genomics, 2007)
Calls of active or inactive are those of the source. No rule for the calls is given here.

Biological target: Peptidyl-prolyl cis-trans isomerase FKBP1A (Homo sapiens) (UniProt P62942)
Assay: small-molecule binding to FKBP12 – biophysical, NMR detection (AID 608)
Settings: purified FKBP12

Sequence of Peptidyl-prolyl cis-trans isomerase FKBP1A (Homo sapiens) (P62942 whole entry, looked up): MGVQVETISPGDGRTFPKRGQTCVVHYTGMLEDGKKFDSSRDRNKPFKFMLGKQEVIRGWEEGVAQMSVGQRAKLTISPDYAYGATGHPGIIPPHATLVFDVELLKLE

Row | SMILES | Kd
1 | CCOc1ccc(OCC(=O)N2CCOCC2)cc1 | inactive
2 | Cc1cc(C)nc(/N=C(\N)N2CCc3ccccc32)n1 | > 4 mM (inactive)
3 | CC(=O)OC(C)(C)[C@@H]1Cc2cc3ccc(=O)oc3cc2O1 | > 4 mM (inactive)
4 | O=c1c2c(nc3nc(COc4ccccc4)[nH]n13)CCC2 | > 4 mM (inactive)
5 | O=C1C2CCCCC2C(=O)N1c1ccc(O)cc1 (configuration not stated) | > 4 mM (inactive)
6 | CC1=C(/C=C/C(C)=C/C=C/C(C)=C/C=C/C=C(C)/C=C/C=C(C)/C=C/C(=O)[C@]2(C)C[C@@H](O)CC2(C)C)C(C)(C)C[C@H](O)C1 | > 4 mM (inactive)
7 | Cn1c(=O)c2c(ncn2C)n(C)c1=O | > 4 mM (inactive)
8 | COC(=O)Nc1nc2c(s1)CCCC2 | > 4 mM (inactive)
9 | CC(=O)Nc1cccc(Cn2cccn2)c1 | > 4 mM (inactive)
10 | NC(=O)CSc1ccccn1 | > 4 mM (inactive)
11 | Cc1cc(C)n(-c2nc(N)cc(=O)[nH]2)n1 | > 4 mM (inactive)
12 | Cc1c(/C=N\n2cnnc2)c2ccccc2n1C | > 4 mM (inactive)
13 | O=C1CCCN1C(=O)c1ccc(F)cc1 | > 4 mM (inactive)
14 | Cc1noc(C)c1C(=O)Nc1ccc2c(c1)CCC2 | > 4 mM (inactive)
15 | OCC1Cc2ccccc2N1 (configuration not stated) | > 4 mM (inactive)
16 | NC(N)=NCCCCN=C(N)N | > 4 mM (inactive)
17 | COc1ncccc1N | > 4 mM (inactive)
18 | OCC1CCN(Cc2ccccc2)CC1 | > 4 mM (inactive)
19 | Cn1cnc2c(Cl)ncnc21 | > 4 mM (inactive)
20 | O=C(NCC1CCNCC1)c1ccncc1 | > 4 mM (inactive)
21 | Cc1n[nH]c(C)c1N | > 4 mM (inactive)
22 | Cc1ccc(C)c(C(=O)NCc2ccncc2)c1 | > 4 mM (inactive)
23 | Cc1cc(C(=O)Nc2cccnc2)cs1 | > 4 mM (inactive)
24 | CCOC(=O)C1C(C=C(C)C)C1(C)C (configuration not stated) | > 4 mM (inactive)
25 | O=C(CSc1cccc2cccnc12)N1CCCC1 | > 4 mM (inactive)

Row | SMILES | Kd
26 | C=CC(C1=CC(=O)C(OC)=CC1=O)c1ccc(O)cc1 (configuration not stated) | > 4 mM (inactive)
27 | COC(=O)c1noc(-c2ccc(OC)cc2)n1 | > 4 mM (inactive)
28 | CC(=O)Nc1cnn(-c2ccccc2)c(=O)c1Cl | > 4 mM (inactive)
29 | CC(C)Oc1ccc(NC(N)=O)cc1 | > 4 mM (inactive)
30 | Clc1ncnc2[nH]ncc12 | > 4 mM (inactive)
31 | CCOC12NC(=O)CC(=O)N1C(c1ccccc1)=CS2 (configuration not stated) | > 4 mM (inactive)
32 | COC1(C)CCC2OC2(C)CCC2C1CC2(C)C (configuration not stated) | > 4 mM (inactive)
33 | Cc1ccc2[nH]c3nc(=S)[nH]nc3c2c1 | > 4 mM (inactive)
34 | Cc1n[nH]c(=S)[nH]c1=O | > 4 mM (inactive)
35 | O=C(O)c1ccc(N2CCCCC2)cc1 | > 4 mM (inactive)
36 | O=C(Nc1ccccc1)Nc1ccccn1 | > 4 mM (inactive)
37 | O=C(O)c1cccnc1 | > 4 mM (inactive)
38 | Cc1nc(-c2cc(C(=O)O)no2)cs1 | > 4 mM (inactive)
39 | CN(C)CCNC(CC(=O)Nc1ccccc1)C(=O)O (configuration not stated) | > 4 mM (inactive)
40 | O=C(O)CCC(=O)Nc1nccs1 | > 4 mM (inactive)
41 | COc1ccc(NC(=O)N2CCCCC2)cc1 | > 4 mM (inactive)
42 | CC(C)c1ccccc1NC(=O)c1cnccn1 | > 4 mM (inactive)
43 | COc1cc2c(cc1OC)C1(O)C(=O)c3ccc(O)c(C(=O)O)c3OC1CO2 (configuration not stated) | > 4 mM (inactive)
44 | NCc1ccc2c(c1)CCO2 | > 4 mM (inactive)
45 | Nc1c(F)c(F)nc(F)c1F | > 4 mM (inactive)
46 | O=S(=O)(Cc1ccc(Cl)cc1)N1CCCC1 | > 4 mM (inactive)
47 | Nc1nnc(SCc2ccc3c(c2)OCO3)s1 | > 4 mM (inactive)
48 | CC(=O)n1nc(-c2cccnc2)nc1N | > 4 mM (inactive)
49 | Cn1ncc(C(=O)O)c1-c1ccccc1 | > 4 mM (inactive)
50 | CCOC(=O)Cn1cnc2sc3c(c2c1=O)CCC3 | > 4 mM (inactive)

Row | SMILES | Kd
51 | CS(=O)(=O)N1CCN(C(=O)c2ccccc2)C1 | > 4 mM (inactive)
52 | COC(=O)C[C@H]1C(C)(C)C(=O)[C@@H]2CC3=C4CC(=O)O[C@@H](c5ccoc5)[C@]4(C)CCC3C1(C)C2=O (some centres not stated) | > 4 mM (inactive)
53 | CC12CNCC(C)(CNC1)C2O (configuration not stated) | > 4 mM (inactive)
54 | O=C(O)c1ccc(CN2CCCCC2)o1 | > 4 mM (inactive)
55 | Cc1cccc(C)c1NC(=O)/C=C/C(=O)O | > 4 mM (inactive)
56 | O=C(Nc1nnc(-c2ccco2)o1)c1ccc([N+](=O)[O-])o1 | > 4 mM (inactive)
57 | CN1CCN(C(=S)NC(=O)c2ccn(C)n2)CC1 | > 4 mM (inactive)
58 | CN=C(c1ccc([N+](=O)[O-])cc1)N(C)C | > 4 mM (inactive)
59 | Cn1nnc2cc(C(=O)N3CCSCC3)ccc21 | > 4 mM (inactive)
60 | Cc1nn(C)c2sc(CO)cc12 | > 4 mM (inactive)
61 | Nc1ncnc2c1ncn2C1C[C@H](O)[C@@H](CO)O1 (some centres not stated) | > 4 mM (inactive)
62 | O=c1[nH]cc(NC(=S)N2CCOCC2)c(=O)[nH]1 | > 4 mM (inactive)
63 | Cc1ccc(C)c(C(=O)n2cnnc2N)c1 | > 4 mM (inactive)
64 | NCc1c[nH]c2ccccc12 | > 4 mM (inactive)
65 | O=C(Nc1ccc2c(c1)OCCO2)c1ccncc1 | > 4 mM (inactive)
66 | CNC(=O)CC1Sc2ccccc2NC1=O (configuration not stated) | > 4 mM (inactive)
67 | Cc1nc(-c2cccc(N)c2)cs1 | > 4 mM (inactive)
68 | CC(=O)/C=C\[C@@H]1[C@@]2(C)CCCC(C)(C)C2CC[C@@]1(C)O (some centres not stated) | > 4 mM (inactive)
69 | COc1ccc(-c2noc(-c3ccco3)n2)cc1OC | > 4 mM (inactive)
70 | Nc1ccc(O)cn1 | > 4 mM (inactive)
71 | Cc1ccc(C(=O)N2CCOCC2)cc1Cl | > 4 mM (inactive)
72 | O=c1oc(-c2ccccc2)nc2c1cnn2-c1ccccc1 | > 4 mM (inactive)
73 | O=C1C=CC(=O)N1c1ccc(N2CCOCC2)cc1 | > 4 mM (inactive)
74 | Cc1cc(=O)n(CCc2ccccc2)c(O)c1C#N | > 4 mM (inactive)
75 | COc1nc(N2CCOCC2)nc(N)c1[N+](=O)[O-] | > 4 mM (inactive)

Row | SMILES | Kd
76 | NC(Cn1ccc(=O)c(O)c1)C(=O)O (configuration not stated) | > 4 mM (inactive)
77 | Cn1nc(C(=O)N2CCOCC2)c2ccccc2c1=O | > 4 mM (inactive)
78 | CC1=C(C(=O)Nc2ccccc2)SCCO1 | > 4 mM (inactive)
79 | CCOc1cc(S(=O)(=O)n2nc(C)cc2C)ccc1F | > 4 mM (inactive)
80 | CCOC(=O)c1c(C)nc2cc(C)ccn12 | > 4 mM (inactive)
81 | COc1ccc(-c2coc3c(OC)c(OC)cc(O)c3c2=O)cc1 | > 4 mM (inactive)
82 | COC(=O)Cc1cc(=O)n(-c2nc3ccccc3s2)[nH]1 | > 4 mM (inactive)
83 | Cc1cc[n+](-c2nc([O-])sc2C=O)cc1 | > 4 mM (inactive)
84 | COCc1cc(=O)oc2cc(N)ccc12 | > 4 mM (inactive)
85 | Nc1ccc(S(=O)(=O)Nc2ccc(F)cc2F)cc1 | > 4 mM (inactive)
86 | CC(=O)Nc1ccc(C(=O)NC2CCSC2=O)cc1 (configuration not stated) | > 4 mM (inactive)
87 | CSc1nc(NC(C)(C)C)nc(N2CCOCC2)n1 | > 4 mM (inactive)
88 | Cc1nc(-c2ccccc2)ncc1C(=O)O | > 4 mM (inactive)
89 | Cc1cc(NC(=O)c2ccc3c(c2)OCCO3)no1 | > 4 mM (inactive)
90 | CC(C)(C)NC(=O)N1CCC(C(=O)O)CC1 | > 4 mM (inactive)
91 | COc1ccc2ccc(=O)oc2c1CC=C(C)C | > 4 mM (inactive)
92 | Nc1c(/C=C2\C=Nc3ccccc32)c(=O)nc2scnn12 | > 4 mM (inactive)
93 | CCOC(=O)Cc1cc(=O)n2[nH]c(C)cc2n1 | > 4 mM (inactive)
94 | Nc1ccc(C(=O)NCC2CCCO2)cc1 (configuration not stated) | > 4 mM (inactive)
95 | COc1ccc(-c2nnc(-c3ccc(N)cc3)o2)cc1 | > 4 mM (inactive)
96 | O=c1cccc2n1C[C@H]1CNCC2C1 | > 4 mM (inactive)
97 | O=C(NN1CCOCC1)c1ccccc1F | > 4 mM (inactive)
98 | COc1ccc(C(=O)/C=C2\NC(=S)NC2=O)cc1 | > 4 mM (inactive)
99 | Nc1ncnc(NCCO)c1[N+](=O)[O-] | > 4 mM (inactive)
100 | C/C=C(\C)C(=O)O[C@H]1C[C@@H](OC(C)=O)[C@@]2(C(=O)OC)CO[C@@H]3C2[C@]12CO[C@](O)(C(=O)OC)[C@H]2[C@](C)(C12O[C@@]1(C)[C@H]1C[C@@H]2OC2OC=C[C@@]21O)[C@@H]3O (some centres not stated) | > 4 mM (inactive)

Row | SMILES | Kd
101 | O=C(O)CCc1ccc2c(c1)OCO2 | > 4 mM (inactive)
102 | O=C1CSC(=Nc2ccc(F)cc2)N1 | > 4 mM (inactive)
103 | Cc1ccc2c(c1)CCCN2C(=O)c1ccncc1 | > 4 mM (inactive)
104 | CC(C)=CC1C(C(=O)O)C1(C)C (configuration not stated) | > 4 mM (inactive)
105 | O=c1[nH]c(=S)[nH]c2c1CCC2 | > 4 mM (inactive)
106 | NCc1cccc(-n2cccc2)c1 | > 4 mM (inactive)
107 | O=C(Nc1ccon1)c1sc2cc(F)ccc2c1Cl | > 4 mM (inactive)
108 | O=CN1CCN(C(=O)c2ccccc2Cl)CC1 | > 4 mM (inactive)
109 | NC(=O)c1ccccc1N1CCCCC1 | > 4 mM (inactive)
110 | O=C(NC1CCS(=O)(=O)C1)C1CCCCC1 (configuration not stated) | > 4 mM (inactive)
111 | [O-][n+]1c2ccccc2[n+]([O-])c2cc(O)ccc21 | > 4 mM (inactive)
112 | [O-][n+]1onc2c1CCc1c-2nn(-c2ccccc2)[n+]1[O-] | > 4 mM (inactive)
113 | O=C(NCc1n[nH]c(=O)c2ccccc12)C1CC1 | > 4 mM (inactive)
114 | CC(=O)Nc1cccc(NC(=O)c2cccnc2)c1 | > 4 mM (inactive)
115 | Cc1csc2nc(N)nn12 | > 4 mM (inactive)
116 | COc1cc(/C=C/C(=O)O)cc(OC)c1OC | > 4 mM (inactive)
117 | Cc1ncc(CC(=O)O)s1 | > 4 mM (inactive)
118 | COc1ccc(C2CC(=O)NN2)cc1OC1CCCC1 (configuration not stated) | > 4 mM (inactive)
119 | O=C(NCc1cccs1)c1ccncc1 | > 4 mM (inactive)
120 | OC[C@H]1O[C@@H](n2cnc3c(NCc4ccco4)ncnc32)[C@H](O)[C@@H]1O | > 4 mM (inactive)
121 | C[C@H]1[C@H](C)CC[C@]2(C(=O)O)CC[C@]3(C)C(=CCC4[C@@]5(C)C[C@@H](O)[C@H](O)[C@@](C)(CO)C5[C@H](O)C[C@]43C)[C@H]12 (some centres not stated) | > 4 mM (inactive)
122 | NC(=O)c1oc2ccccc2c1N | > 4 mM (inactive)
